# Where a SMILES comes first, the peptide text is derived from it. [ ]: non-standard residue; d: D form. The star is where a group is joined. PhAc = O=C(Cc1ccccc1)*
# What was measured:
# [1] = biological target: T1, isopenicillin N synthetase (cyclase) (Streptomyces clavuligerus, UniProt P10621); assay: Cyclization of peptide substrates by S. clavuligerus cyclase, penicillin formed measured by bioassay against M. luteus; format: biochemical; settings: for kinetics of cyclization with the cyclase (Fig 1): formation of penicillin G from PCV, synthesis of isopenicillin N from ACV
# T1 construct: The broken cell suspension was ultra-centrifuged at 100,000 x g; endogenous in cells; host or cells: Streptomyces clavuligerus ATCC 27064
# T1 sequence (P10621 1-329): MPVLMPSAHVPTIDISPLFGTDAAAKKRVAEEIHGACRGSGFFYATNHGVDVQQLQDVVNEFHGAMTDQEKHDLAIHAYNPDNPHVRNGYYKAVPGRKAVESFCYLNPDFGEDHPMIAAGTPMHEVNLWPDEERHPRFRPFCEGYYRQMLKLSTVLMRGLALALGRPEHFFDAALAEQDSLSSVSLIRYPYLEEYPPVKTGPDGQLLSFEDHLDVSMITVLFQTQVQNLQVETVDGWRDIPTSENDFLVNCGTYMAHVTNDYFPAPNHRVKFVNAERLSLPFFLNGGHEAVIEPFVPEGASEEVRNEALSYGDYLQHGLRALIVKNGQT
# Protocol: S. clavuligerus ATTC 27064 was maintained and grown as described by O'Sullivan et al. in Biochem. J. 179:47-52, 1979. 250 ml of culture were harvested by centrifugation at 10,000 x g for 5 minutes, washed four times by resuspension in sterile saline solution and centrifuged as before. The precipitated cells, resuspended in 25 ml of […] Tris-HCl buffer pH 7.5 containing 0.1mM DTT (TD buffer), were sonicated as described in J. Antibiot. 35:483-490, 1982, using a Branson Sonifier Cell Disruptor (B-12). The broken cell suspension was ultra-centrifuged at 100,000 x g (Beckman L5-65B) for 90 minutes, treated with 0.2 (w/v) protamine sulphate and the clear extract precipitated with ammonium sulphate (30-80% saturation, for example 50-80% saturation). The resulting precipitate was resuspended in 3 ml of TD buffer and applied to a Sephadex (Trade Mark) G-25, PD-10 column (Pharmacia). Aliquots of 1 ml were collected and assayed for isopenicillin N synthetase (cyclase) activity. Fractions 4 and 5, containing maximal activity, were mixed and employed for the reaction. The cyclase extracts were stored frozen at -20 C. Protein was measured by the method of Lowry et al described in J. Biol. Chem. 193:265-273, 1951.
# Cyclization activity of the cyclase on ACV or PCV was assayed by a slightly modified version of the method described by Jensen et al. in J.Antibiot, 35:483-490, 1982 and in Antibiotics and Other Secondary Metabolites pages 141-164, Academic Press. The reaction mixture contained 30mM Tris-HCl buffer pH 7.5; 0.5 mM FeSO₄; 1mM bis-ACV or 3mM bis-PCV; 4mM DTT; 3 mM Na ascorbate and enzyme (10mg of protein) in a final reaction volume of 0.5 ml. The reaction mixture was incubated at 25°C for 90 min and stopped by adding 0.5ml of methanol.
# The formation of isopenicillin N and benzylpenicillin was measured by bioassay against M. luteus ATCC 9341 following the hole plate method described in Biochem. J. 103:877-890, 1967. Penicillin N and benzylpenicillin were used as standards. One unit of antibiotic (penicillin N or benzylpenicillin) gave a zone of inhibition equivalent to 1µg or 1.58 µg of penicillin N or benzylpenicillin respectively with M. luteus luteus ATCC 9341 as test organism.
# [2] = biological target: T2, isopenicillin N synthetase (cyclase) (Penicillium chrysogenum, UniProt P08703); assay: Cyclization of peptide substrates by P. chrysogenum cyclase, penicillin formed measured by bioassay; format: biochemical
# T2 construct: The mycelium was disrupted by sonification for 5 minutes; endogenous in cells
# T2 sequence (P08703 1-331): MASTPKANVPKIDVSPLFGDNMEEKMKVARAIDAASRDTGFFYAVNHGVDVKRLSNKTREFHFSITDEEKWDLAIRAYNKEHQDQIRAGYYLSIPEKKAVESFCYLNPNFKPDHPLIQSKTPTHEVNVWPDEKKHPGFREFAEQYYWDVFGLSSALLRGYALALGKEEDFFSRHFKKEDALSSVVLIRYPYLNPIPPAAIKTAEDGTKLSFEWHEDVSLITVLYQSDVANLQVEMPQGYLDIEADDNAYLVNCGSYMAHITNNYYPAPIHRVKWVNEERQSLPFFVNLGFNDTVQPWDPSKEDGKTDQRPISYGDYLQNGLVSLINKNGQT
# Protocol: Example 2 was repeated but using isopenicillin N synthetase extracted from a high producing strain of Penicillium chrysogenum (Penicillium chrysogenum AS-P-78, Luengo et al J. Antibiot. 144:869-876). Cells containing high isopenicillin N synthetase activity were obtained in a two stage process as described in J. Antibiot. 144:869-876. Cell free extracts were obtained as described by Ramos et al in Antimicrob. Agents Chemother. 27(3):380-387. Mycelium of P. chrysogenum was collected at 24 hours of cultivation in cephalosporin production medium (CP medium) and resuspended in 30mM Tris-HCl buffer pH 8.0 containing 0.1mM dithiothreitol (DTT). The mycelium was disrupted by sonification for 5 minutes. The extract was centrifuged at 100,000 x g for 1 hour at 4°C in a Beckman L8-70 ultracentrifuge and the resulting crude extract was stored at -20°C. Isopenicillin N synthetase were purified as previously described in Antimicrob. Agents Chemother. 27(3):380-387. The isopenicillin N and benzylpenicillin formed by cyclization of 0.2mM ACV or 2mM PCV using […] was assayed by the following bioassay. After the reactions were stopped with methanol, triplicate 50 µl samples were applied to wells 7mm in diameter in plates containing 15ml of Tryptic Soy Agar (TSA) medium (Difco) innoculated with Micrococcus luteus (0.5 ml of a culture having an O.D. of 1.0 at 600nm). Control samples of pure isopenicillin N or benzylpenicillin were treated with methanol in a similar way to the reaction samples. The samples in the assay plates were kept at 4°C for 3 hours to allow diffusion and then incubated at 30°C for 12 hours. The cell free extracts of P. chrysogenum AS-P-78 (5-20 mg of protein/ml) were incubated at 25°C for 30 minutes in a reaction mixture containing 30mM Tris-HCl buffer pH 8.1, 0.1mM FeSO₄, 6mM DTT, 3mM Na ascorbate and 3mM POCV. The pH was adjusted to 2.0.
# [3] = biological target: T3, isopenicillin N synthetase (cyclase) (Hapsidospora chrysogena, UniProt P05189); assay: Cyclization of peptide substrates by A. chrysogenum cyclase, penicillin formed measured by bioassay; format: biochemical, Acremonium chrysogenum
# T3 construct: The mycelium was disrupted by sonification for 2 minutes; endogenous in cells
# T3 sequence (P05189 1-338): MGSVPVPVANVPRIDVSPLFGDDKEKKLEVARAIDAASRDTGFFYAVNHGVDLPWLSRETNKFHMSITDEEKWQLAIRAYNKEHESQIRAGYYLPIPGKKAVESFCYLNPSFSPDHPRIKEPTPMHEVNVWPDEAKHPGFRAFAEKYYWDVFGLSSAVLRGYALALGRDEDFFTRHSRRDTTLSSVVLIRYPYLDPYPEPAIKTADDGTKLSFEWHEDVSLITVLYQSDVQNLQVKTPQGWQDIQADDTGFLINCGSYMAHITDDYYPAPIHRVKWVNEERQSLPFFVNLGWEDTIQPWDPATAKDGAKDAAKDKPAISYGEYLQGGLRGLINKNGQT
# Protocol: Example 2 was repeated but using isopenicillin N synthetase extracted from a high producing strain of Acremonium chrysogenum (A. chrysogenum C-10 available from A. L. Demain).
# Cells containing high isopenicillin N synthetase activity were obtained in a two stage process as described in J. Antibiot. 144:869-876. A. chrysogenum cultures were developed in seed medium for 4 days and these used to innoculate 60ml of chemically defined cephalosporin production medium, (CP medium). Cell free extracts were obtained as described by Ramos et al in Antimicrob. Agents Chemother. 27(3):380-387. Mycelium of A. chrysogenum was collected at 64 hours of cultivation in CP medium and resuspended in 30mM Tris-HCl buffer pH 8.0 containing 0.1mM dithiothreitol (DTT). The mycelium was disrupted by sonification for 2 minutes. The extract was centrifuged at 100,000 x g for 1 hour at 4°C in a Beckman L8-70 ultracentrifuge and the resulting crude extract was stored at -20 C. Isopenicillin N synthetase was purified as previously described in Antimicrob. Agents Chemother. 27(3):380-387.
# Bioassay of the isopenicillin N and benzylpenicillin formed by the A. chrysogenum cyclase was performed in a similar way to the method described in Example 3 for assaying the penicillins produced by the cyclase extracted from P. chrysogenum.
# Example 4 was repeated but using POCV as substrate in place of PCV. POCV was prepared as described in Example 5. The cyclase was extracted from A. chrysogenum AS-C-80 and incubated in the reaction mixture described in Example 5, with the exception that the pH of the Tris buffer was 7.8.
# [4] = test system: isopenicillin N synthetase, also called cyclase; settings: added to the reaction mixture; cited from earlier work
smiles,measurement,setting,value
"CC(C)[C@@H](NC(=O)[C@H](CS)NC(=O)Cc1ccccc1)C(=O)O [PCV, phenylacetyl-L-cysteinyl-D-valine] (PhAc-Cys-[dV]-OH)",sensitivity of the cyclization product to β-lactamase I from Bacillus careus,[1],sensitive to β-lactamase I
same,Benzylpenicillin (U/ml),[1]; complete reaction mixture with PCV as substrate,0.15 U/ml
same,kinetics of cyclization with the cyclase (Fig 1),[1],slow time dependent course
same,activity of the cyclization product against M. luteus ATTC 9341,[1]; hole plate bioassay,active against M. luteus ATTC 9341
same,loss of antibacterial activity of the cyclization product,[1]; incubated with 2 I.U. of penicillin acylase at 30°C for 10 minutes,over 90 per cent
same,Isopenicillin N¹ or Benzylpenicillin² (U/ml),"[1]; substrate PCV (3mM bis-PCV), control reaction mixture, 25°C, 90 min, benzylpenicillin as standard",0.15 U/ml
same,Isopenicillin N¹ or Benzylpenicillin² (U/ml),"[1]; substrate PCV, + Penicillin acylase (2 I.U, 10 min.), benzylpenicillin as standard",0.01 U/ml
same,Isopenicillin N¹ or Benzylpenicillin² (U/ml),"[1]; substrate PCV, + β-lactamase, benzylpenicillin as standard",0.00 U/ml
same,inactivation of the reaction product by penicillin acylase,[2],inactivated by penicillin acylase
same,inactivation of the reaction product by penicillinase,[2],completely inactivated
same,inactivation of the reaction product by penicillin acylase,[3],inactivated by penicillin acylase
same,inactivation of the reaction product by penicillinase,[3],completely inactivated
"CC(C)[C@@H](NC(=O)[C@H](CS)NC(=O)CCC[C@H](N)C(=O)O)C(=O)O [ACV, δ-(L-α-aminoadipyl)-L-cysteinyl-D-valine, reference compound]",kinetics of cyclization with the cyclase (Fig 1),[1],much faster
same,sensitivity of the cyclization product to penicillin acylase,[1]; isopenicillin N obtained from the cyclization of ACV,not sensitive to penicillin acylase
same,Isopenicillin N¹ or Benzylpenicillin² (U/ml),"[1]; substrate ACV (1mM bis-ACV), control reaction mixture, 25°C, 90 min, isopenicillin N measured using penicillin N as standard",40 U/ml
same,Isopenicillin N¹ or Benzylpenicillin² (U/ml),"[1]; substrate ACV, + Penicillin acylase (2 I.U, 10 min.), isopenicillin N measured using penicillin N as standard",38 U/ml
same,Isopenicillin N¹ or Benzylpenicillin² (U/ml),"[1]; substrate ACV, + β-lactamase, isopenicillin N measured using penicillin N as standard",0 U/ml
same,inactivation of the reaction product by penicillin acylase,[2],did not occur
same,inactivation of the reaction product by penicillinase,[2],completely inactivated
same,inactivation of the reaction product by penicillinase,[3],completely inactivated
"N[C@@H](CCC(=O)N[C@@H](CS)C(=O)NCC(=O)O)C(=O)O [glutathione, γ-glutamyl-cysteinyl-glycine]",effect on ACV cyclization,[4],inhibited
"CC(C)[C@@H](NC(=O)[C@H](CS)NC(=O)COc1ccccc1)C(=O)O [POCV, phenoxyacetyl-L-cysteinyl-D-valine]",Penicillin V (U/ml),"[2]; complete reaction mixture, 3mM POCV, Tris-HCl buffer pH 8.1, 25°C, 30 minutes, P. chrysogenum AS-P-78 cell free extract",0.18 U/ml
same,Penicillin V (U/ml),"[3]; complete reaction mixture, 3mM POCV, Tris buffer pH 7.8, cyclase from A. chrysogenum AS-C-80",0.25 U/ml

# Reference: patent EP0209363B1, “Heteropeptides, intermediates in the biosynthesis of penicillins” (Antibioticos, S.A., priority 1985, dated 1987)
